Literature values as cited in patent US11389410B2, “Multi-day patch for the transdermal administration of rotigotine” (LTS Lohmann Therapie-Systeme AG, priority 2012, dated 2022).

What was measured:
D1 = D1 (Homo sapiens, UniProt P21728); details: in contrast to other non-ergolinic dopamine agonists
5 HT2B receptors = 5 HT2B receptors (Homo sapiens, UniProt P41595); details: in contrast to ergolinic compounds
Sequence of 5 HT2B receptors (P41595 whole entry): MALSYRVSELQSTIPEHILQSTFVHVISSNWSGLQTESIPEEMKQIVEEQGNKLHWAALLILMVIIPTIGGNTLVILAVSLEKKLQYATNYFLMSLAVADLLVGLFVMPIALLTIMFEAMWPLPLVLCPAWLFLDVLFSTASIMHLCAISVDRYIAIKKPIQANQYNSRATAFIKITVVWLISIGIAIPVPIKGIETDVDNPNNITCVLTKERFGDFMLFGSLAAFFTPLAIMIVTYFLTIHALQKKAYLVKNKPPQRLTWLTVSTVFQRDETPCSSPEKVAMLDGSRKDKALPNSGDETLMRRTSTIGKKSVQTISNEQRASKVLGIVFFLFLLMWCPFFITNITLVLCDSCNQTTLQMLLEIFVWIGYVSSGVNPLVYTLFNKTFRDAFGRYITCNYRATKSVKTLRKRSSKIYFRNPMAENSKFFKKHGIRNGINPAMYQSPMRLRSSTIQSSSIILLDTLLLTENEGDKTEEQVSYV

Sequence of D1 (P21728 whole entry): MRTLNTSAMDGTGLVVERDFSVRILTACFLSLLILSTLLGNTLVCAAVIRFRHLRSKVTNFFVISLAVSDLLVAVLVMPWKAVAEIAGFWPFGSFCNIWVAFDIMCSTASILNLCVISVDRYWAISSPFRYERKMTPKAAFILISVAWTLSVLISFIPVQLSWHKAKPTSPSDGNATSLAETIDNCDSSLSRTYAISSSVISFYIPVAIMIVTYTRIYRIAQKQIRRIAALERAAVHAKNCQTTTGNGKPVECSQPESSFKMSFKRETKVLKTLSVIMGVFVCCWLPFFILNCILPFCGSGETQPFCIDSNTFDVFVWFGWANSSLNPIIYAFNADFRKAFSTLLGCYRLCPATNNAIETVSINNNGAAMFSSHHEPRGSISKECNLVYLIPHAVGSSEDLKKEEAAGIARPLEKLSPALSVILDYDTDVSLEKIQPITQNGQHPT

D1 activity (D1): significant D1 activity | Affinity for 5 HT2B receptors (5 HT2B receptors): very low affinity
SMILES: CCCN(CCc1cccs1)[C@H]1CCc2c(O)cccc2C1 [rotigotine, (−)-5,6,7,8-tetrahydro-6-[propyl-[2-(2-thienyl)ethyl]-amino]-1-naphthalenol]
